# Measurements published in patent publication US12090147B2, “Combination therapy with 2-(4-chlorophenyl)-N-((2-(2,6-dioxopiperidin-3-yl)-1-oxoisoindolin-5-yl)methyl)-2,2-difluoroacetamide” (Celgene Corporation, priority 2019, dated 2024).
# Residues, ends and D or L forms follow the SMILES beside them. *: point of attachment. Cbz = O=C(OCc1ccccc1)*; CH2F = FC*
# Experiments:
# Format in all cases: cell-based, human
# [1] = system: ML-2; assay: Cytokine induction, electrochemiluminescence assay of culture supernatant; settings: for Effect of caspase inhibitor on secreted IL-1β induction by Compound 1: 1000 nM Compound 1 with 1, 10, 100 μM inhibitor; for Effect of second agent on Compound 1 induced IL-1β: ML-2 (FIG. 12); for Secreted IL-1β in cell culture supernatant: 24, 48 and 72 hours, doses conferring similar caspase3/7 activation and viability loss
# Method: (§1) For cytokine assays on AML cell lines, cells were seeded at 1 million per mL, 3 mL per well of 6-well plates and allowed set overnight. The next day, cells were treated with 3 μL 1000× working stock of compounds of interest.
# (§2) Human AML cell lines, HL-60 (CCL-240), KG-1 (CCL-246), ML-2 (ACC-15), MOLM-13 (ACC-554), MV-4-11 (CRL-9591), NOMO-1 (ACC-542), TF-1 (CRL-2003), THP-1 (TIB-202), and U937 (CRL-1593) were obtained from American Type Culture Collection (ATCC; Manassas, VA) or Deutsche Sammlung von Mikroorganismen and Zellkulturen (DSMZ, Germany) cell banks. Acute myeloid leukemia cell lines were maintained in RPMI-1640 (ATCC Cat No. 30-2001) containing 20% fetal bovine serum (FBS) (Corning Cat No. 35-010-CV) and maintained in humidified incubators at 5% carbon dioxide.
# (§3) IL-1α (Meso Scale Disgnostics, Cat No. K151RBD), IL-1β (Meso Scale Disgnostics, Cat No. K151QPD), IL-1RA (Meso Scale Disgnostics, Cat No. K151WTD), IL-18 (Meso Scale Disgnostics, Cat No. K151VJK), TNFa (Meso Scale Disgnostics, Cat No. K151QWD), VEGF Meso Scale Disgnostics, Cat No. K151RHD) levels were measured by (Meso Scale Disgnostics assay kits following manufacturer's instructions. Measurements were made on a MESO™ SECTOR S 600 plate reader (Meso Scale Disgnostics).
# (§4) Cell proliferation (CTG) and caspase 3/7 activation (IncuCyte) were analyzed using GraphPad Prism. Electrochemiluminescence data was analyzed using MSD Discovery Workbench platform.
# (§5) The level of intracellular pro IL-1β and released IL-1β in eight AML cell lines and normal PBMC treated with a titration of Compound 1 over a 48 hour period was assessed. (see FIGS. 1A-1C, Table 2). Supernatant IL-1βb level was induced over 5 fold in 6 out of 8 AML cell lines and normal PBMC upon Compound 1 treatment compared to DMSO (FIGS. 1A, 1B, and 1C, Table 2).
# [2] = system: MV4-11; assay: as above; settings: for Effect of caspase inhibitor on secreted IL-1β induction by Compound 1: MV411, 1000 nM Compound 1 with 10 μM inhibitor
# Method: as §1, §2, §3, §4, §5
# [3] = system: MOLM-13; assay: as above; settings: for Effect of second agent on Compound 1 induced IL-1β: MOLM13 (FIG. 13)
# Method: as §1, §2, §3, §4, §5
# [4] = system: ML-2 cells; assay: Immunoblot analysis of target proteins; settings: 24, 48 and 72 hours, doses conferring similar caspase3/7 activation and viability loss
# Method: Cells were washed in ice-cold 1×PBS twice before harvest in Cell Extraction Buffer (ThermoFisher Cat No. FNN0011) supplemented with 1× Halt Protease Inhibitor Cocktail (ThermoFisher Cat No. 78429). Whole cell extracts were collected after centrifugation at 14,000 g for 10 minutes, resolved on 4-12% Bis-Tris Novex Precast Gels (ThermoFisher Cat No. WG1403A), transferred onto a nitrocellulose membrane using the Turboblot Turbo Transfer System (Bio-Rad), and probed with the indicated primary antibodies. Bound antibodies were detected with IRDye-680 or -800 conjugated secondary antibodies using a LI-COR scanner.
# Antibodies used for immunoblot: mouse anti-human GSPT-1 mAb conjugated with AL647 (clone number GSPT1-164-17G9-G6, Celgene, San Diego, CA), IL-1β (R&D Systems, Cat No. AF-201-NA), cleaved caspase 3 (Cell Signaling, Cat No. 9664S), alpha-tubulin (Cell Signaling, Cat No. 3873S), cleaved Caspase-8 (Cell Signaling, Cat No. 9748S), Caspase-1 (Cell Signaling, Cat No. 3866S), HA tag (Cell Signaling, Cat No. 3724), phosphor-eIF2a (Cell Signaling, Cat No. 9721), total eIF2a (Cell Signaling, Cat No. 9722), ATF4 (Cell Signaling, Cat No. 11815S), CHOP (Abcam, Cat No. 11419), GAPDH (Cell Signaling, Cat No. 5174), rabbit anti-mouse 800 antibody (LI-COR Biosciences), rabbit anti-mouse 680 antibody (LI-COR Biosciences), mouse anti-rabbit 680 antibody (LI-COR Biosciences), mouse anti-rabbit 800 antibody (LI-COR Biosciences)
# as §5
# [5] = system: THP-1; assay: Cytokine induction, electrochemiluminescence assay of culture supernatant
# Method: as §1, §2, §3, §4, §5
# [6] = system: U937; assay: as above
# Method: as §1, §2, §3, §4, §5
# [7] = system: TF-1; assay: as above
# Method: as §1, §2, §3, §4, §5
# [8] = system: NOMO-1; assay: as above
# Method: as §1, §2, §3, §4, §5
# [9] = system: KG-1; assay: as above
# Method: as §1, §2, §3, §4, §5
# [10] = system: eight AML cell lines and normal PBMC; assay: IL-1 family cytokine induction across the cell panel; settings: most cell lines tested (FIG. 1B: ML-2); LPS as positive control
# Method: as §1, §3, §5
# The maturation of IL-1β can be mediated through classical caspase-1 inflammasome pathway, or a caspase-8 dependent non-canonical inflammasome signaling (Antonopoulos et al. J Biol Chem. 2015, 290(33):20167-84; Chauhan et al. Cell Rep. 2018, 25(9):2354-2368; and Schneider et al. Cell Rep. 2017, 21(13):3846-3859). To understand if classical caspase-1 mediated inflammasome pathway was activated by Compound 1, the levels of an inflammasome marker, IL-18, were tested in response to Compound 1 (FIG. 1B, Table 1), using a known inflammasome stimulant lipopolysaccharide (LPS) as positive control.
# [11] = system: Normal Peripheral Blood Mononuclear Cells; assay: Cytokine induction, electrochemiluminescence assay of culture supernatant; settings: PBMC
# Method: Normal PBMCs were purchased from AllCells (Cat No. PB006F). Primary AML BMMC in were purchased from Conversant (SKU ID: BBM1000-E1110036458110215SH) or Fidelis Research (AML55, AML57, AML73, AML74, AML76, AML79, AML80, AML81, AML84, AML95). Bone marrow from health donor was purchased from StemCell Technologies (Cat No. 70001.2).
# Normal PBMCs were cultured in RPMI-1640 (ATCC Cat No. 30-2001) containing 20% fetal bovine serum (Corning Cat No. 35-010-CV). Primary AML and bone marrows were cultured in Complete Medium Cytokines 1X: StemSpam™ Serum-Free Expansion Medium (StemCell Technologies Cat No. 09650) supplemented with 50 ng/mL Stem Cell Factor (Peprotech Cat No. 300-07), 50 ng/mL recombinant Human FLT3-Ligand (Peprotech Cat No. 300-19), 20 ng/mL recombinant human-interleukin-3 (Peprotech Cat No. 200-03), […] recombinant human-interleukin-6 (Peprotech Cat No. 200-06), 1 μM StemRegenin (StemCell Technologies Cat No. 72342), penicillin/streptomycin (Invitrogen Cat No. 15140122).
# as §3, §4, §5
compound,measurement,setting,value
COC(=O)C[C@H](NC(=O)[C@H](C)NC(=O)[C@@H](NC(=O)OCc1ccccc1)C(C)C)C(=O)CF [Z-VAD-FMK] (Cbz-Val-Ala-Asp(OMe)-CH2F),Effect of caspase inhibitor on secreted IL-1β induction by Compound 1,[1]; ML-2,significantly blocked
same,Effect of caspase inhibitor on secreted IL-1β induction by Compound 1,[2],significantly blocked
C[C@]12C=CC(=O)C=C1CC[C@H]1[C@@H]3C[C@@H](O)[C@](O)(C(=O)CO)[C@@]3(C)C[C@H](O)[C@@]12F [triamcinolone],Effect of second agent on Compound 1 induced IL-1β,[3],can be suppressed
same,Effect of second agent on Compound 1 induced IL-1β,[1],can be suppressed
C[C@]12CCC(=O)C=C1CC[C@@H]1[C@@H]2[C@@H](O)C[C@@]2(C)[C@H]1CC[C@]2(O)C(=O)CO [cortisol],Effect of second agent on Compound 1 induced IL-1β,[3],can be suppressed
same,Effect of second agent on Compound 1 induced IL-1β,[1],can be suppressed
C[C@]12CCC(=O)C=C1CC[C@@H]1[C@@H]2C(=O)C[C@@]2(C)[C@H]1CC[C@]2(O)C(=O)CO [cortisone],Effect of second agent on Compound 1 induced IL-1β,[3],can be suppressed
same,Effect of second agent on Compound 1 induced IL-1β,[1],can be suppressed
Z-YVAD,Effect of caspase inhibitor on secreted IL-1β induction by Compound 1,[1]; ML-2,did not suppress IL-1β induction to nearly the same extent as pan- or caspase 8 inhibitors
same,Effect of caspase inhibitor on secreted IL-1β induction by Compound 1,[2],did not suppress IL-1β induction to nearly the same extent as pan- or caspase 8 inhibitors
CC[C@H](C)[C@H](NC(=O)OCc1ccccc1)C(=O)N[C@@H](CCC(=O)OC)C(=O)N[C@H](C(=O)N[C@@H](CC(=O)OC)C(=O)CF)[C@@H](C)O [Z-VAD-IETD] (Cbz-IE(OMe)TD(OMe)-CH2F),Effect of caspase inhibitor on secreted IL-1β induction by Compound 1,[1]; ML-2,significantly blocked
same,Effect of caspase inhibitor on secreted IL-1β induction by Compound 1,[2],significantly blocked
CC(C)(C)[C@H](NC(=O)c1ccc(N)c(Cl)c1)C(=O)N1CCC[C@H]1C(=O)N[C@H](C=O)CC(=O)O [VRT043198],Effect of caspase inhibitor on secreted IL-1β induction by Compound 1,[1]; ML-2,did not suppress IL-1β induction to nearly the same extent as pan- or caspase 8 inhibitors
same,Effect of caspase inhibitor on secreted IL-1β induction by Compound 1,[2],did not suppress IL-1β induction to nearly the same extent as pan- or caspase 8 inhibitors
C[C@]12C=CC(=O)C=C1CC[C@@H]1[C@@H]2[C@@H](O)C[C@@]2(C)[C@H]1CC[C@]2(O)C(=O)CO [prednisolone],Effect of second agent on Compound 1 induced IL-1β,[3],can be suppressed
same,Effect of second agent on Compound 1 induced IL-1β,[1],can be suppressed
C/C=C(/C)C(=O)O[C@H]1C(C)=C2[C@H]([C@@H]1OC(=O)CCCCCCC)[C@@](C)(OC(C)=O)C[C@H](OC(=O)CCC)[C@@]1(O)[C@H]2OC(=O)[C@@]1(C)O [thapsigargin],IL-1β induced by ER stress / unfolded protein response inducers,[1]; ML-2,Low levels of IL-1β was induced
same,Secreted IL-1β in cell culture supernatant,[1]; ML-2,not able to induce high levels
same,Intracellular pro-IL-1β (immunoblot),[4],not able to induce high levels
C[C@]12C=CC(=O)C=C1CC[C@@H]1[C@@H]2C(=O)C[C@@]2(C)[C@H]1CC[C@]2(O)C(=O)CO [prednisone],Effect of second agent on Compound 1 induced IL-1β,[3],can be suppressed
same,Effect of second agent on Compound 1 induced IL-1β,[1],can be suppressed
CC(C)C[C@H](NC(=O)[C@H](Cc1ccccc1)NC(=O)c1cnccn1)B(O)O [bortezomib],IL-1β induced by ER stress / unfolded protein response inducers,[1]; ML-2,Low levels of IL-1β was induced
same,Secreted IL-1β in cell culture supernatant,[1]; ML-2,not able to induce high levels
same,Intracellular pro-IL-1β (immunoblot),[4],not able to induce high levels
"lipopolysaccharide [LPS, reference compound]",IL-1β induction,[5],96.62
same,IL-18 induction,[5],12.13
same,IL-1β induction,[6],1.44
same,IL-18 induction,[6],1.28
same,IL-1β induction,[7],1.12
same,IL-18 induction,[7],1.41
same,IL-1β induction,[8],3.11
same,IL-18 induction,[8],1.77
same,IL-1β induction,[3]; MOLM-13,0.00
same,IL-1β induction,[9],17.67
same,IL-18 induction,[9],3.47
same,IL-1β induction,[1]; ML-2,8.70
same,IL-18 induction,[1]; ML-2,1.21
same,IL-1β induction,[2]; MV4-11,65.19
same,IL-18 induction,[2]; MV4-11,24.45
same,IL-18 levels (inflammasome marker),[10],profound IL-18 induction at early time point (6 hrs)
same,IL-1β induction,[11],174.15
same,IL-18 induction,[11],1.88
"C[C@@H]1C[C@@H]([C@H](O)CC2CC(=O)NC(=O)C2)C(=O)[C@@H](C)C1 [cycloheximide, reference compound]",Secreted IL-1β in cell culture supernatant,[1]; ML-2,not able to induce high levels
same,Intracellular pro-IL-1β (immunoblot),[4],not able to induce high levels
